According to patent US6197768A, “Pyridocarbazole derivatives having cgmp-pde inhibitory activity” (Mochida Pharmaceutical Co., Ltd., priority 1996, dated 2001):

Legend:
PDE type I = assay: PDE Inhibiting Activity, type I; format: biochemical, dog (canine aorta); settings: PDE type I from canine aorta, 1 μM substrate, pH 7.5; read-out: Inhibition Activity IC50, Type I
Protocol: (§1) On the basis of the method of Lugnier et al. (Biochem. Pharmacol., 35, 1743-1751, 1986), PDE was purified from the aorta in a dog. The canine aorta was minced and homogenized with a Waring Blender and a glass homogenizer in six volumes of a Tris-HCl buffer solution (pH 7.5, 20 mM) containing 2 mM magnesium acetate, 5 mM ethylenediaminetetraacetic acid (EDTA), 100 μg/mL of phenylmethylsulforyl fluoride and 15 mM 2-mercaptoethanol (2-ME), and centrifuged at 1200 xg for 30 min. The supernatant was separated and salted out with ammonium sulfate which was added to 45% saturation. The resulting precipitated fraction was resuspended in a Tris-HCl buffer solution (pH 7.5, 20 mM) containing 2 mM magnesium acetate and 1 mM 2-ME, dialyzed overnight and applied to a DEAE-trisacryl column (DEAE […] M:IBF). By elution with a sodium chloride gradient (0-0.4 M), PDE types V and III were separated from the other isozymes. The supernatant fraction of 45% saturated ammonium sulfate was further mixed with ammonium sulfate to 65% saturation and salted out. The resulting precipitated fraction was similarly applied to the DEAE-trisacryl column and eluted by a sodium chloride gradient (0-0.4 M) so as to separate PDE type I.
(§2) The thus obtained PDE types V, III and I were measured for their activity in accordance with the method of Thompson et al. (Adv. Cyclic Nucleotide Res., 10, 69-72, 1979) and the method of Wells et al. (Biochim. Biophys. Acta, 384, 430-443, 1975). Specifically, a purified PDE sample was added to 50 mM Tris-HCl buffer solution (pH 7.5) containing 1 μM of substrate cGMP or cAMP (containing tritium-labelled cGMP or cAMP), 1 mM EGTA and 2 mM magnesium acetate. For PDE activity measurement, enzymatically produced 5' GMP or 5' AMP was further hydrolyzed into guanosine or adenosine with snake venom and separated from the substrate by means of an ion-exchange resin (Dowex 1-X2), followed by measuring with a scintillation counter. The activity of each test compound was determined as a percentage of the DPE activity measured when it was added as a dimethyl sulfoxide solution (DMSO) and its IC50 (50% inhibition concentration) was calculated by the probit method. The final concentration of DMSO was adjusted to be no more than 2% in consideration of the effect on PDE activity.

[1] = test system: pulmonary arterial pressure; assay: Pulmonary Arterial Pressure Lowering Action in anesthetized dogs; format: in vivo, adult mongrel dogs; settings: anesthetized dogs
Protocol: (§3) Adult mongrel dogs were anesthetized by intramuscular administration of 20 mg/kg of ketamine and intravenous administration of 20 mL/kg of physiological saline containing 5 mg/mL of α-chloralose; under artificial respiration, the aortic pressure was measured with a catheter inserted into the femoral artery and the pulmonary arterial pressure with a Swan-Ganz catheter inserted into the pulmonary artery. Anesthesia was maintained by intravenous administration of physiological saline containing 5 mg/mL of α-chloralose at a rate of 5 mL/kg per hour. Comparison was made between nitroglycerin, nifedipine and test compounds which were administered intravenously at doses of 0.01-1 mg/kg. Each test compound was dissolved in dimethylformamide (DMF) and sequentially diluted with polyethylene glycol 200 and water to give respective proportions of 20, 50 and 30% (v/v) and administrated by injection into the right femoral vein in a volume of 0.3 mL/kg. The results are shown in Table 2 below, in which maximal percent decreases in the pulmonary arterial pressure and aortic pressure are listed to show the effectiveness of each test compound in lowering the pulmonary arterial pressure and the systemic blood pressure, respectively.

PDE type III = target: T1, PDE type III (Canis lupus familiaris, UniProt A0A8I3NYE0); assay: PDE Inhibiting Activity, type III; format: biochemical, dog (canine aorta); settings: PDE type III from canine aorta, 1 μM substrate, pH 7.5; read-out: Inhibition Activity IC50, Type III
T1 construct: PDE was purified from the aorta in a dog; from tissue; host or cells: dog aorta
T1 sequence (A0A8I3NYE0 1-1135): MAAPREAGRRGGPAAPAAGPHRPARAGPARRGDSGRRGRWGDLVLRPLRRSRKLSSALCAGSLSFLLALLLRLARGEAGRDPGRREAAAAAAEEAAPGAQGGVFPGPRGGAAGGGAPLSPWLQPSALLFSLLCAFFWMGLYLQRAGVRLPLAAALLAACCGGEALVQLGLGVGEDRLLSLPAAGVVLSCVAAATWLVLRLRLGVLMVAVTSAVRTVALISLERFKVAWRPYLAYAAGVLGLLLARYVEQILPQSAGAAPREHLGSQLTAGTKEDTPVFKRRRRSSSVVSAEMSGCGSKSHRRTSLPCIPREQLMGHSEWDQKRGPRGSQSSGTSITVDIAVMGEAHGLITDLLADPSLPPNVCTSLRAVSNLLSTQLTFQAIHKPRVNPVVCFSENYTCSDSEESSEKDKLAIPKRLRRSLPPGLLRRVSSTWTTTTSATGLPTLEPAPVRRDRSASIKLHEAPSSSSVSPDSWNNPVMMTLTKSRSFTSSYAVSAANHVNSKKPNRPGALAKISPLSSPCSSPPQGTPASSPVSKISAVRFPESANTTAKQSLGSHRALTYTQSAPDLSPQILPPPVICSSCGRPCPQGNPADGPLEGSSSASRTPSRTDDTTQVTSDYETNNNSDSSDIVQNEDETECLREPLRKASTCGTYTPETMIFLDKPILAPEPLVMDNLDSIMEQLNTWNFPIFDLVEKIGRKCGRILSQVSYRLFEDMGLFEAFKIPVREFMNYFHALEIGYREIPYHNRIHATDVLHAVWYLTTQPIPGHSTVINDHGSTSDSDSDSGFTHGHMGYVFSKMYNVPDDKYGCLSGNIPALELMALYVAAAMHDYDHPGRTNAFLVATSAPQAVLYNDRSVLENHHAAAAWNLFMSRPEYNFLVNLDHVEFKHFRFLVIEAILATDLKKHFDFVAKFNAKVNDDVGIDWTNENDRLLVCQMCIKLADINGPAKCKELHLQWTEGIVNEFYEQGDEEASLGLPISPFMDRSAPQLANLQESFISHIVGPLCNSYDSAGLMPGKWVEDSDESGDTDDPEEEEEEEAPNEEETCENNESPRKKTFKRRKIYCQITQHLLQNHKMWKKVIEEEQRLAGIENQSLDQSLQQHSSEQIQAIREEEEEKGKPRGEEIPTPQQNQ
Protocol: as §1, §2

systemic blood pressure = assay: Systemic blood (aortic) pressure lowering in anesthetized dogs; format: in vivo, adult mongrel dogs
Protocol: as §3

[2] = Canis lupus familiaris, iv, 0.3 mg/kg intravenous, maximal percent decrease, read-out: Reduction in pulmonary arterial pressure
[3] = Canis lupus familiaris, iv, 0.3 mg/kg intravenous, anesthetized dogs, maximal percent decrease, read-out: Reduction in systemic blood pressure

IC50 (PDE type I) [µM] | IC50 (PDE type III) [µM] | SMILES | inhibition in vivo at 0.3 mg/kg [1, 2] [%] | inhibition in vivo at 0.3 mg/kg (systemic blood pressure; [3]) [%] | also measured
> 30 | 9.3 | O=c1c(Cc2cccnc2)cn2c3cc(Br)ccc3c3cc(O)cc1c32 [Example 102, 9-bromo-2-hydroxy-5-(3-pyridylmethyl)-4H-pyrido [3,2,1-jk]carbazole-4-one] | 24 | 19 | –
> 30 | 2.4 | O=c1c(Cc2cccnc2)cn2c3cc(Br)ccc3c3cc(OCc4cccnc4)cc1c32 [Example 105, 9-bromo-5-(3-pyridylmethyl)-2-(3-pyridylmethyloxy)-4H-pyrido [3,2,1-jk]carbazole-4-one] | – | – | inhibition in vivo at 0.1 mg/kg ([1]; Canis lupus familiaris, iv, 0.1 mg/kg intravenous, maximal percent decrease, read-out: Reduction in pulmonary arterial pressure): 16%; inhibition in vivo at 0.1 mg/kg (systemic blood pressure; Canis lupus familiaris, iv, 0.1 mg/kg intravenous, anesthetized dogs, maximal percent decrease, read-out: Reduction in systemic blood pressure): 12%
> 30 | 3.9 | CCOC(=O)COc1cc2c(=O)c(Cc3cccnc3)cn3c4ccc(Cl)cc4c(c1)c23 [Example 245] | – | – | –
> 30 | > 30 | Cc1cc2c(=O)ccn3c4ccc(Br)cc4c(c1)c23 [Example 277] | – | – | –
– | – | CS(=O)(=O)O.O=c1c(Cc2cccnc2)cn2c3cc(Br)ccc3c3cc(OCCCO)cc1c32 [Example 279, 9-bromo-2-(3-hydroxypropyloxy)-5-(3-pyridylmethyl)-4H-pyrido[3,2,1-jk]carbazole-4-one methanesulfonate] | – | – | Reduction in pulmonary arterial pressure ([1]; 0.3 mg/kg intravenous, maximal percent decrease): 17%; Reduction in systemic blood pressure (systemic blood pressure; 0.3 mg/kg intravenous, anesthetized dogs, maximal percent decrease): 4%
> 30 | 3.6 | O=c1c(Cc2cccnc2)cn2c3cc(Cl)ccc3c3cc(OCCCO)cc1c32 [Example 283, 9-chloro-2-(3-hydroxypropyloxy)-5-(3-pyridylmethyl)-4H-pyrido[3,2,1-jk]carbazole-4-one] | – | – | –
– | – | O=c1c(Cc2cccnc2)cn2c3cc(Cl)ccc3c3cc(OCCCO)cc1c32 [Example 285, 9-chloro-2-(3-hydroxypropyloxy)-5-(3-pyridylmethyl)-4H-pyrido[3,2,1-jk]carbazole-4-one methanesulfonate] | 16 | 2 | –
> 30 | 2.5 | O=c1c(Cc2cccnc2)cn2c3cc(C(F)(F)F)ccc3c3cc(OCCCO)cc1c32 [Example 289, 2-(3-hydroxypropyloxy)-5-(3-pyridylmethyl)-9-trifluoromethyl-4H-pyrido[3,2,1-jk]carbazole-4-one] | – | – | –
– | – | O=c1c(Cc2cccnc2)cn2c3cc(C(F)(F)F)ccc3c3cc(OCCCO)cc1c32 [Example 291, 2-(3-hydroxypropyloxy)-5-(3-pyridylmethyl)-9-trifluoromethyl-4H-pyrido[3,2,1-jk]carbazole-4-one methanesulfonate] | 13 | 4 | –
– | – | COC(=O)C1=C(C)NC(C)=C(C(=O)OC)C1c1ccccc1[N+](=O)[O-] [Nifedipine, nifedipine, reference compound] | – | – | inhibition in vivo at 0.01 mg/kg ([1]; Canis lupus familiaris, iv, 0.01 mg/kg intravenous, maximal percent decrease, read-out: Reduction in pulmonary arterial pressure): 3%; pulmonary arterial versus systemic blood pressure lowering (in words) ([1]; intravenous): lowered the systemic blood pressure by greater degrees than the pulmonary arterial pressure; inhibition in vivo at 0.01 mg/kg (systemic blood pressure; Canis lupus familiaris, iv, read-out: Reduction in systemic blood pressure): 18%

SMILES | IC50 (PDE type I) [µM] | IC50 (PDE type III) [µM] | inhibition in vivo at 0.3 mg/kg [1, 2] [%] | inhibition in vivo at 0.3 mg/kg (systemic blood pressure; [3]) [%] | also measured
CC(C)(C)OC(=O)COc1cc2c(=O)c(Cc3cccnc3)cn3c4ccc(Br)cc4c(c1)c23 [Example 3, 10-bromo-2-t-butoxycarbonylmethyloxy-5-(3-pyridylmethyl)-4H-pyrido [3,2,1-jk]carbazole-4-one] | > 30 | > 30 | 19 | 12 | –
Cc1cn2c3ccc(Br)cc3c3cc(OCC(=O)OC(C)(C)C)cc(c1=O)c32 [Example 50, 10-bromo-2-t-butoxycarbonylmethyloxy-5-methyl-4H-pyrido [3,2,1-jk]carbazole-4-one] | > 30 | > 30 | 33 | 13 | –
CC(C)(C)OC(=O)COc1cc2c(=O)ccn3c4ccc(Br)cc4c(c1)c23 [Example 60, 10-bromo-2-t-butoxycarbonylmethyloxy-4H-pyrido [3,2,1-jk]carbazole-4-one] | > 30 | 15 | 20 | 8 | –
